Measurements: patent US20250034116A1, “1,4-DIHETEROCYCLIC SUBSTITUTED AROMATIC RING OR AROMATIC HETEROCYCLIC COMPOUND AND USE THEREOF” (BeBetter Med Inc., priority 2022, published 2025)

How the values were obtained:
[1] = tested on: CYP enzymes in human liver microsomes (HLM); assay: Inhibition of 20-HETE production in human liver microsomes (HLM); format: biochemical
In short: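 LC-MS/MS read-out of 20-HETE formation, expressed as activity relative to no-inhibitor control and fitted to a Hill equation for IC50; percent inhibition also given at 1000, 500 or 100 nM. Enzyme sources: recombinant CYP4F2, recombinant CYP4A11, or human or mouse liver microsomes. Each is combined with compound and substrate (400 μM solution) and warmed 10 min at 37 °C, then incubated 25 min at 37 °C after adding NADPH (6 mM solution).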

[2] = tested on: CYP enzymes in rat liver microsomes (RLM); assay: Inhibition of 20-HETE production in rat liver microsomes (RLM); format: biochemical
In short: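 Test compounds were dissolved in DMSO, diluted in acetonitrile/DMSO (3:1), and 2 μl was mixed with 100 μl potassium phosphate buffer containing rat liver microsomes in a 96-well plate. Duplicate 30 μl aliquots received 15 μl of 400 μM substrate, were preheated at 37° C. for 10 minutes, then started with 15 μl of 6 mM NADPH for 25 minutes. LC-MS/MS measured 20-HETE formation.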

[3] = tested on: CYP enzymes in mouse liver microsomes (MLM); assay: Inhibition of 20-HETE production in mouse liver microsomes (MLM); format: biochemical
Protocol: (§1) Experimental principle: The inhibitory activity of 20-HETE production is evaluated by testing the inhibitory effects of the compound on human liver microsomes (HLM), rat liver microsomes (RLM), mouse liver microsomes (MLM), or […] CYP4 subtype enzymes (CYP4F2). This assay employs HLM, RLM, or MLM along with recombinant CYP4F2 (rCYP4F2) and recombinant CYP4A11 (rCYP4A11), which are […] CYP4 subtype enzymes, to detect the effects of the test compound at different concentrations on the metabolic rate of enzyme-specific substrates, to determine the inhibitory effects of the test compound on CYP enzymes in HLM, RLM, or MLM.
(§2) Experimental methods: Dissolve the test compound in DMSO, and subsequently dilute it with an acetonitrile and DMSO mixture (3:1). Add 2 μl of varying concentrations of the test compound and 100 μl of potassium phosphate buffer containing either liver microsomes or recombinant enzymes to a 96-well plate. After mixing well, transfer 30 μl to another well (in duplicate), add 15 μl of 400 μM substrate solution, and mix well again. Preheat at 37° C. for 10 minutes, and then add 15 μl of 6 mM NADPH and incubate at 37° C. for 25 minutes. After 25 minutes, add 160 μl of acetonitrile solution (containing 0.1 μg/ml internal standard) to stop the reaction. Mix well, centrifuge at 3500 g for 15 minutes, and then analyze the supernatant using LC-MS/MS.
(§3) Plot the compound concentration on the x-axis and the inhibition rate on the y-axis to draw the curve. Use GraphPad Prism 5 software to fit the curve and calculate the IC50. The formula is Y=Bottom+(Top−Bottom)/(1+10^((Log IC50−X)×HillSlope)). X represents the logarithmic concentration of the inhibitor, and Y represents the relative enzyme activity at a given inhibitor concentration (relative to the condition without the inhibitor).
(§4) Calculate the inhibition percentages at concentrations of 1000 nM, 500 nM, or 100 nM as well as the half-maximal inhibitory concentration (IC50) of the test compound from the above experiment.

[4] = target: recombinant CYP4A11 (rCYP4A11) (Homo sapiens (Human), UniProt Q02928); assay: Inhibition of 20-HETE production by recombinant CYP4A11; format: biochemical; conditions: for inhibition at 0.1 µM: read-out: rCYP4A11 (% inh @ 100 nM)
recombinant CYP4A11 (rCYP4A11), sequence (Q02928 5-519): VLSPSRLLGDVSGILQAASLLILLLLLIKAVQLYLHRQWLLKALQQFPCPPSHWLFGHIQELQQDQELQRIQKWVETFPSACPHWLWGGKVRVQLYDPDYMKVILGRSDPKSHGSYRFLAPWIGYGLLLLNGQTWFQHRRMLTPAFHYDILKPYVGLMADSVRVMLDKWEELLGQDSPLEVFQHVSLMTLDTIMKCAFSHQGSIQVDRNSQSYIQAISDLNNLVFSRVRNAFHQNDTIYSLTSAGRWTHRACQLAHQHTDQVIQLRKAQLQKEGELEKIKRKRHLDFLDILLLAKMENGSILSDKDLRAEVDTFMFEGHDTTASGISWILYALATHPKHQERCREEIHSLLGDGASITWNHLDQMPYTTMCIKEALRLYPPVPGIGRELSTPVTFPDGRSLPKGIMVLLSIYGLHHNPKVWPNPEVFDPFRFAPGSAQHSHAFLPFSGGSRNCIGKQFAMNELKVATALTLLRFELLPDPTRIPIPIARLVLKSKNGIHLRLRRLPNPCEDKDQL
Protocol: as §1, §2, §3, §4

[5] = target: recombinant CYP4F2 (rCYP4F2) (Homo sapiens (Human), UniProt P78329); assay: Inhibition of 20-HETE production by recombinant CYP4F2; format: biochemical; conditions: for inhibition at 0.1 µM: read-out: rCYP4F2 (% inh @ 100 nM)
recombinant CYP4F2 (rCYP4F2), sequence (P78329 5-520): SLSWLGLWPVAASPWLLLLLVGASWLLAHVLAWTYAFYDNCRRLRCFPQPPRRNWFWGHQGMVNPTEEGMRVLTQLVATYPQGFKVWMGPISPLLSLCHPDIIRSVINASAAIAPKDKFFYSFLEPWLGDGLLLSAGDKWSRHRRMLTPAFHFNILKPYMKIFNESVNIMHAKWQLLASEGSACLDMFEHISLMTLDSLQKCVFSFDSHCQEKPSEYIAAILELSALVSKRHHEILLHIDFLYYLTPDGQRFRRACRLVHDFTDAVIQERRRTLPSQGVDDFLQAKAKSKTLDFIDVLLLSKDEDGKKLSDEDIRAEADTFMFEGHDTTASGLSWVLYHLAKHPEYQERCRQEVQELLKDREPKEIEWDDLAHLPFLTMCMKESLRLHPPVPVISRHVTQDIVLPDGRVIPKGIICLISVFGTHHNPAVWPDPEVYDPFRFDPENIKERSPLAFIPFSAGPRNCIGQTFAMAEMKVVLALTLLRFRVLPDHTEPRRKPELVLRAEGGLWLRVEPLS
Protocol: as §1, §2, §3, §4

[6] = Pharmacokinetic (PK) experiment, oral administration in rats; format: in vivo, Male SD rats; conditions: 20 mg/kg; for AUC(0-inf) / Cmax / Tmax / half-life / AUC(0-t): male, SD, rat, plasma; for AUC(0-t): read-out: AUC0-24
Protocol: Male SD rats, weighing 180-250 grams, were fasted overnight before testing. The test compound was dissolved in 30% sulfobutylether-β-cyclodextrin and administered orally at a dose of 20 mg/kg. Blood was collected from the tail vein at 15 minutes, 30 minutes, and 1, 2, 4, 6, 8, and 24 hours after administration. Approximately 0.3 ml of blood was collected at each time point, placed in a centrifuge tube containing K2-EDTA, and centrifuged (2000 g for 10 minutes at 4° C.) to take the plasma, which was then stored in an ultra-low temperature freezer at −70° C. or below. A 50 μL plasma sample was mixed with 135 μL of acetonitrile (containing 0.5 μg/mL internal standard) and vortexed for protein precipitation. After centrifugation, the supernatant was taken for LC-MS/MS analysis.

Row | Compound | IC50 [1] | HLM (% inh @ 500 nM) [1] | IC50 [2] | IC50 [3] | inhibition at 0.1 µM [4] | inhibition at 0.1 µM [5] | RLM (% inh @ 500 nM) [2] | AUC(0-inf) [6] | Cmax [6] | Tmax [6] | half-life [6] | AUC(0-t) [6] | absorption and blood exposure after oral administration (in words) [6] | IC50 [4] | IC50 [5]
1 | O=C1CCCCN1CC1CCN(c2c(F)cc(-c3cn[nH]c3)cc2F)CC1 [Compound 27, 1-((1-(2,6-difluoro-4-(1H-pyrazol-4-yl)phenyl)piperidin-4-yl)methyl)piperidin-2-one] | 26 nM | 88.87% | 23.3 nM | 1150 nM | 52.3% | 78.4% |  |  |  |  |  |  |  |  | 
2 | O=C1CCCN1Cc1ccc(C2CCN(c3cn[nH]c3)CC2)cc1 [Reference 83, reference compound] | 51.8 nM | 79.09% | 598 nM | > 10000 nM | 35.6% | 54.6% | 38.16% | 2640 ng·h/mL | 562 ng/mL | 1.5 h | 3.53 h | 2630 ng·h/mL |  |  | 
3 | O=C1CCCN1CC1CCN(c2ccc(-c3cn[nH]c3)cc2Cl)CC1 [Compound 11, 1-((1-(2-chloro-4-(1H-pyrazol-4-yl)phenyl)piperidin-4-yl)methyl)pyrrolidin-2-one] |  | 80.98% | 157 nM |  | 46.3% | 59.7% |  |  |  |  |  |  |  |  | 
4 | O=C1CCCN1CC1CCN(c2c(F)cc(-c3cn[nH]c3)cc2F)CC1 [Compound 5, 1-((1-(2,6-difluoro-4-(1H-pyrazol-4-yl)phenyl)piperidin-4-yl)methyl)pyrrolidin-2-one] | 28.1 nM | 81.03% | 44.2 nM | 946 nM |  | 71.1% | 66.71% | 124000 ng·h/mL | 9270 ng/mL | 2.67 h | 8.11 h | 103000 ng·h/mL | well absorbed and exhibit high blood exposure | 39.6 nM | 24.9 nM
5 | O=C(C1CCCC1)N1CCC(c2ccc(-c3cn[nH]c3)cc2)CC1 [Compound 70, (4-(4-(1H-pyrazol-4-yl)phenyl)piperidin-1-yl)(cyclopentyl) methanone] | 19.4 nM | 89.89% | 4.9 nM | 135 nM | 65.5% | 79.2% |  | 69000 ng·h/mL | 7320 ng/mL | 3 h | 2.57 h | 68800 ng·h/mL | well absorbed and exhibit high blood exposure |  | 
6 | O=C1CCCCN1CC1CCN(c2ccc(-c3cn[nH]c3)c(F)c2F)CC1 [Compound 26, 1-((1-(2,3-difluoro-4-(1H-pyrazol-4-yl)phenyl)piperidin-4-yl)methyl)piperidin-2-one] |  | 89.67% | 124 nM | 1670 nM | 53.9% | 78% | 63.62% | 40500 ng·h/mL | 7150 ng/mL | 1.67 h | 2.93 h | 40300 ng·h/mL | well absorbed and exhibit high blood exposure |  | 
